Square brackets hold non-standard residues; d marks the D form. Ends that are not written are not given here. Nle = CCCC[C@H](N)C(=O)O
T1: alpha-ENaC (Homo sapiens, UniProt P37088)
T1 construct: expressed in transfected cells; host or cells: HEK293T
T1 sequence (P37088 1-669): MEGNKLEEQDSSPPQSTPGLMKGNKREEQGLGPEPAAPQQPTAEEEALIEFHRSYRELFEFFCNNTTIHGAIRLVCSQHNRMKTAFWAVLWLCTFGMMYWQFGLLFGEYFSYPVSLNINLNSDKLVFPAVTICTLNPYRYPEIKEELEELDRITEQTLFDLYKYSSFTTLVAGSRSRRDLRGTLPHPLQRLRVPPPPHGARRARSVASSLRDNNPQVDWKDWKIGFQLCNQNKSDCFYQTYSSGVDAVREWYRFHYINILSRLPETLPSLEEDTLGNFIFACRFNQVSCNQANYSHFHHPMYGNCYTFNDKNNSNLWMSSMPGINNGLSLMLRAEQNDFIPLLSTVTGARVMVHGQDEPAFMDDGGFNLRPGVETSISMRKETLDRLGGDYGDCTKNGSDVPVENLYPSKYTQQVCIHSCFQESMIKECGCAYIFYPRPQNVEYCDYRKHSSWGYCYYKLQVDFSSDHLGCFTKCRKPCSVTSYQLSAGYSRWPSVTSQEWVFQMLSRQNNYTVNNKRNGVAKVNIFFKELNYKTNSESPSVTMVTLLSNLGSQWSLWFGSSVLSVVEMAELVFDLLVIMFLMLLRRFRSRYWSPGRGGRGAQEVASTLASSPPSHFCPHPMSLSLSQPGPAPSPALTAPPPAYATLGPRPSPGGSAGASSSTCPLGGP

T2: ENaC (Homo sapiens, UniProt P37088+P51168+P51170)
T2 construct: Peptides were added mucosally to HBECs at 30 μM and ASL height measured 3 h later by XZ-confocal microscopy; endogenous in cells; host or cells: primary human bronchial epithelial cultures (HBECs) at air-liquid interface
T2 sequence (P37088 1-669): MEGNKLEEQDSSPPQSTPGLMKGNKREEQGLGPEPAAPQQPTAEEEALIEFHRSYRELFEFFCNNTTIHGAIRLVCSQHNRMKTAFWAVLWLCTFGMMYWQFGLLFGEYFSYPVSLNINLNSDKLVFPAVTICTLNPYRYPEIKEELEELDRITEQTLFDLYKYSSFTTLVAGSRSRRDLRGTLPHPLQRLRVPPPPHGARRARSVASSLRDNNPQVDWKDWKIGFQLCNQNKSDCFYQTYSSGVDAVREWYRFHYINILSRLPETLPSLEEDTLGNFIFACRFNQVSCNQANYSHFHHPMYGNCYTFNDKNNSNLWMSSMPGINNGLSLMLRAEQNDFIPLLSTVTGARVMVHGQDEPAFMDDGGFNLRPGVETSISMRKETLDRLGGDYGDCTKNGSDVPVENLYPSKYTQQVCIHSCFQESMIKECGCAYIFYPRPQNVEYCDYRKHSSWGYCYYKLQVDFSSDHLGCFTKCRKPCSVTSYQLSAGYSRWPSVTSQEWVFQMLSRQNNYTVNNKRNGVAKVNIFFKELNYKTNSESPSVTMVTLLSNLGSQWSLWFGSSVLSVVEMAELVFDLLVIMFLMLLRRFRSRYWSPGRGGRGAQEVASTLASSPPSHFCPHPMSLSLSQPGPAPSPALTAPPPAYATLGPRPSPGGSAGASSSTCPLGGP
T2 sequence (P51168 1-640): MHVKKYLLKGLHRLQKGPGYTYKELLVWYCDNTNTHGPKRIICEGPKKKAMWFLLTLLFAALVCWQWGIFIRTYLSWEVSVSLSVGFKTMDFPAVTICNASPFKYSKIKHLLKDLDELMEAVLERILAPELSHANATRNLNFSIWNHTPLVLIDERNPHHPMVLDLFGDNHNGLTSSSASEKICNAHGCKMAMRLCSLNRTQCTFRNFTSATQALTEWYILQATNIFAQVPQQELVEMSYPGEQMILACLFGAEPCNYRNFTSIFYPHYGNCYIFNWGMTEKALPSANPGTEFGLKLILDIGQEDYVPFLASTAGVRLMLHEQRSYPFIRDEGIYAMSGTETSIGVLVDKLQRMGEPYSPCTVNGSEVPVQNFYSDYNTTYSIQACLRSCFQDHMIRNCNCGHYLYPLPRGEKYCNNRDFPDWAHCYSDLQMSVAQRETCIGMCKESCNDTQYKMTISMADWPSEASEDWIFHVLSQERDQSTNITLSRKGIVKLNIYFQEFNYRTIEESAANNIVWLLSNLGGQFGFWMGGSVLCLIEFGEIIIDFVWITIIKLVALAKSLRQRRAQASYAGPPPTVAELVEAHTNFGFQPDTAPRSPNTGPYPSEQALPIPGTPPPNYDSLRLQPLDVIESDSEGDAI
T2 sequence (P51170 1-649): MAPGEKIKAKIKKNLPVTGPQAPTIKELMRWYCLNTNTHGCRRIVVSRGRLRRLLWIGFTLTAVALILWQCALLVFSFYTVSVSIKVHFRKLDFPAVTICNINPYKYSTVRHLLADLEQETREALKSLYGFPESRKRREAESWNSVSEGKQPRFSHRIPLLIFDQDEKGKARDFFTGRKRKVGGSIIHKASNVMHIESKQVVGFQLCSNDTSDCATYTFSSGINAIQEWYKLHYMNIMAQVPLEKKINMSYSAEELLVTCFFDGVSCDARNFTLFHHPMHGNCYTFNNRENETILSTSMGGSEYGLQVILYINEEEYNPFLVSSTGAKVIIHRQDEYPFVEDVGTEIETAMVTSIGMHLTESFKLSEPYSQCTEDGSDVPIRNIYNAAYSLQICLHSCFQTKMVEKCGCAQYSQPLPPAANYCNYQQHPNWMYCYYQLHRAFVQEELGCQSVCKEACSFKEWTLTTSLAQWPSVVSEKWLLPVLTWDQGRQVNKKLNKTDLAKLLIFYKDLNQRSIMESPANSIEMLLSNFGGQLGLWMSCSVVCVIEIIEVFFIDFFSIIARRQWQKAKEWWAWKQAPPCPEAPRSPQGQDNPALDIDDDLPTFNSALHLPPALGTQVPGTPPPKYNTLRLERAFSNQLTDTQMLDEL

T3: alpha-ENaC (Homo sapiens, UniProt P37088+P51168+P51170)
T3 construct: expressed in transfected cells; host or cells: HEK293T
T3 sequence (P37088 1-669): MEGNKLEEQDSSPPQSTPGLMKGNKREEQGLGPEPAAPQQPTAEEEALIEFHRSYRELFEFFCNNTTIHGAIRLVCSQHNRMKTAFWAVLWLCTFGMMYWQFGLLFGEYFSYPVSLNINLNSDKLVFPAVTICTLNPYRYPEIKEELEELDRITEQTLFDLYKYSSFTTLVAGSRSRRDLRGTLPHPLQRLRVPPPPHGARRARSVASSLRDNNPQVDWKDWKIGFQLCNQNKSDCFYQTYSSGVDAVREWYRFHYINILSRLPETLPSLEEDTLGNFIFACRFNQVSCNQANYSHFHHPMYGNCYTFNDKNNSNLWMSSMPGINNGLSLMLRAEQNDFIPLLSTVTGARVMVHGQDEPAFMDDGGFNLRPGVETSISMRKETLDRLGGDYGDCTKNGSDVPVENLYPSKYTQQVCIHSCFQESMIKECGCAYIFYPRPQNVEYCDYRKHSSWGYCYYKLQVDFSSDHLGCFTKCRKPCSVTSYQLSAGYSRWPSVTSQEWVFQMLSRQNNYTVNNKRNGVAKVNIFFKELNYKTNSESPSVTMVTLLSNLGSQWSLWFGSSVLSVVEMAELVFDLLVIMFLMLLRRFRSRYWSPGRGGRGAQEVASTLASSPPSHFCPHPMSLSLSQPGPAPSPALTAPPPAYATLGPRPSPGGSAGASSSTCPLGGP
T3 sequence (P51168 1-640): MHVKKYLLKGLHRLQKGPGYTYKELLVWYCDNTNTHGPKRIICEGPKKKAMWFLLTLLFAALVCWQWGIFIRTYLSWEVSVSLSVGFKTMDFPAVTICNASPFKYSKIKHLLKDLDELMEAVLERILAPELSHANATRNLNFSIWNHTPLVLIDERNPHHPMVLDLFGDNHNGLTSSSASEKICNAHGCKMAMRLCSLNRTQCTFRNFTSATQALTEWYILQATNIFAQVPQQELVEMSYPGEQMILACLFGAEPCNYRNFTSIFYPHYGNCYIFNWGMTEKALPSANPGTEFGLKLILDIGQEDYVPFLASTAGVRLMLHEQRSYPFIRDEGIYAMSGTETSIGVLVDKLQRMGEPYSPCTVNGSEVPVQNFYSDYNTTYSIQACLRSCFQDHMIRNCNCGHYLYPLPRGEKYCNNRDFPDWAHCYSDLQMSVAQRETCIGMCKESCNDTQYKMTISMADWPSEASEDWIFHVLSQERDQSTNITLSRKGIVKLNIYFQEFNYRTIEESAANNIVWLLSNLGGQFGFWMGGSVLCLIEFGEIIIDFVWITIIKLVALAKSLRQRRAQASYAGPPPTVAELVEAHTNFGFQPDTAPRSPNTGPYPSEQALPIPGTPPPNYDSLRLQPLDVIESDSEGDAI
T3 sequence (P51170 1-649): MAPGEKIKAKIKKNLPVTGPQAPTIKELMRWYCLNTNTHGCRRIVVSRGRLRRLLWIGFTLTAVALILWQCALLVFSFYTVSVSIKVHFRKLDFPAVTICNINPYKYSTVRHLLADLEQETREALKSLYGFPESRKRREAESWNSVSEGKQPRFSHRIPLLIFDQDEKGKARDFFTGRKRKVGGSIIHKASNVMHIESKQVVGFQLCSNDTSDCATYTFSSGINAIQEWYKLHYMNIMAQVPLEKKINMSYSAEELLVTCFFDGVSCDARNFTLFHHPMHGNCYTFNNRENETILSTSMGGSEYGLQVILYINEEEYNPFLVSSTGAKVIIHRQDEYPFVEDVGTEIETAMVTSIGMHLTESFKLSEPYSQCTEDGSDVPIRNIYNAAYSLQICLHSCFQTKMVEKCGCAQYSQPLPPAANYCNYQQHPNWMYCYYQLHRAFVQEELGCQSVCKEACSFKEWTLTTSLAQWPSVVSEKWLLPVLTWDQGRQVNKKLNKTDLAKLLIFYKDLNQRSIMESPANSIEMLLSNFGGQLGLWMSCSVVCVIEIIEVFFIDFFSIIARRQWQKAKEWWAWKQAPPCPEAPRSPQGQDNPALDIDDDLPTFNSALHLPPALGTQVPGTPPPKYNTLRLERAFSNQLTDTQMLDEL

B1: aaLPNlePLDQTaa (SEQ ID NO:5) (peptide)
peptide: [dA][dA]LP[Nle]PLDQT[dA][dA]-NH2
modifications: N-terminus assumed
SMILES: CCCC[C@H](NC(=O)[C@@H]1CCCN1C(=O)[C@H](CC(C)C)NC(=O)[C@@H](C)NC(=O)[C@@H](C)N)C(=O)N1CCC[C@H]1C(=O)N[C@@H](CC(C)C)C(=O)N[C@@H](CC(=O)O)C(=O)N[C@@H](CCC(N)=O)C(=O)N[C@H](C(=O)N[C@H](C)C(=O)N[C@H](C)C(N)=O)[C@@H](C)O

Experiments:
Heat stability = type: physicochemical
alpha-ENaC [1] = target: T1, alpha-ENaC; assay: Internalization of alpha-ENaC in HEK293T cells, GFP-tagged alpha-ENaC co-expressed only with gamma ENaC and no beta-ENaC; type: cell-based; conditions: FIG. 6
Method: […] Am J Physiol Lung Cell Mol Physiol. 2013 December; 305(12):L990-L1001. doi: 10.1152/ajplung.00103.2013. Epub 2013 October; Garland et al. Proc Natl Acad Sci USA. 2013 Oct. 1; 110(40):15973-8. doi: 10.1073/pnas.1311999110. Epub 2013 Sep. 16.; Tan et al. J Physiol. 2014 Dec. 1; 592(Pt 23):5251-68). Twenty-four hours later, peptide or vehicle control were added at t=0 and fluorescence was read using a Tecan M1000 plate reader 3 h later. Fluorescence was read at 488 nm (excitation)/510 nm (emission).

ENaC = target: T2, ENaC; conditions: previously demonstrated (Hobbs et al., 2013); cited from earlier work
proteases = type: in vitro ADME
alpha-ENaC [2] = target: T3, alpha-ENaC; assay: Internalization of alpha-ENaC in HEK293T cells, GFP-tagged alpha-ENaC co-expressed with beta and gamma ENaC; type: cell-based; conditions: beta-ENaC co-expressed, FIGS. 5A-5U
Excerpt: HEK293T cells were transfected with gfp-αENaC where gfp was fused at the N-terminus of ENaC and unlabeled βENaC and γENaC using lipofectamine in 384 well plates as per the manufacturer's instructions and as published previously (see, e.g., Hobbs et al. Am J Physiol Lung Cell Mol Physiol. 2013 December; 305(12):L990-L1001. doi: 10.1152/ajplung.00103.2013. Epub 2013 October; Garland et al. Proc Natl Acad Sci USA. 2013 Oct. 1; 110(40):15973-8. doi: 10.1073/pnas.1311999110. Epub 2013 Sep. 16.; Tan et al. J Physiol. 2014 Dec. 1; 592(Pt 23):5251-68). Twenty-four hours later, peptide or vehicle control were added at t=0 and fluorescence was read using a Tecan M1000 plate reader 3 h later. Fluorescence was read at 488 nm (excitation)/510 nm (emission).

[3] = target: epithelial Na+ channel (ENaC), endogenous in human bronchial epithelial cultures (human, UniProt P37088 1-669; P51168 1-640; P51170 1-649); assay: cell-based or functional assay

Molecule | heat stability (Heat stability) | effect on alpha-ENaC (alpha-ENaC [1]) | EC50 for inhibition of ENaC (ENaC) | duration of ENaC inhibition following a single dose (ENaC) | susceptibility to proteolytic degradation (proteases) | reduction of alpha-ENaC / functional receptor on the cell surface (alpha-ENaC [2]) | IC50, dose response of ASL height on airway cells [3] [nM]
H-GGLPVPLDQTLPLNVNPA-NH2 [SEQ ID NO:1] | heat-stable | no effect | sub micromolar | up to 24 h | resistant to proteolysis | effective in reducing alpha-ENaC | 
B1 |  |  |  |  |  |  | 30

From patent publication US20200031866A1, “PEPTIDE INHIBITORS OF SODIUM CHANNELS” (SPYRYX BIOSCIENCES, INC., priority 2016, published 2020)
